Tests used:
Carboplatin = compound: C1CC(C1)(C(=O)[O-])C(=O)[O-].N.N.[Pt+2] [Carboplatin]; settings: max 10 µM
In short: (§1)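 Plates with 1536 wells received cancer cell lines in 7.5 μl of DMEM/F12 or RPMI containing 10% FBS. After 24 hours at 37°C and 5% CO2, cells were dosed for 72 hours with final DMSO typically 0.2%, and viability was read by CellTiter-Glo 2.0 luminescence scaled between blank-well and DMSO-well means. The single-agent IC50 was taken from a logistic fit of the dose responses made with a non-linear mixed effects model, that logistic curve having two parameters.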

AZD5363 = compound: C1CN(CCC1(C(=O)N[C@@H](CCO)C2=CC=C(C=C2)Cl)N)C3=NC=NC4=C3C=CN4 [AZD5363]; settings: max 10 µM
In short: as §1

AZD1775 = compound: C=CCn1c(=O)c2cnc(Nc3ccc(N4CCN(C)CC4)cc3)nc2n1-c1cccc(C(C)(C)O)n1 [AZD1775]; settings: max 3 µM
In short: as §1

Trametinib = compound: CC(=O)Nc1cccc(-n2c(=O)n(C3CC3)c(=O)c3c(Nc4ccc(I)cc4F)n(C)c(=O)c(C)c32)c1 [Trametinib]; settings: max 1 µM
In short: as §1

Paclitaxel = compound: CC(=O)O[C@H]1C(=O)[C@@]2(C)[C@H]([C@H](OC(=O)c3ccccc3)[C@]3(O)C[C@H](OC(=O)[C@H](O)[C@@H](NC(=O)c4ccccc4)c4ccccc4)C(C)=C1C3(C)C)[C@]1(OC(C)=O)CO[C@@H]1C[C@@H]2O [Paclitaxel]; settings: max 3 µM
In short: as §1

Palbociclib = compound: CC(=O)c1c(C)c2cnc(Nc3ccc(N4CCNCC4)cn3)nc2n(C2CCCC2)c1=O [Palbociclib]; settings: max 10 µM
In short: as §1

AZD1390 = compound: CC(C)n1c(=O)n(C)c2cnc3cc(F)c(-c4ccc(OCCCN5CCCCC5)nc4)cc3c21 [AZD1390]; settings: max 0.3 µM
In short: as §1

Venetoclax = compound: CC1(C)CCC(CN2CCN(c3ccc(C(=O)NS(=O)(=O)c4ccc(NCC5CCOCC5)c([N+](=O)[O-])c4)c(Oc4cnc5[nH]ccc5c4)c3)CC2)=C(c2ccc(Cl)cc2)C1 [Venetoclax]; settings: max 1 µM
In short: as §1

Dasatinib = compound: CC1=C(C(=CC=C1)Cl)NC(=O)C2=CN=C(S2)NC3=CC(=NC(=N3)C)N4CCN(CC4)CCO [Dasatinib]; settings: max 2 µM
In short: as §1

SG3199 = compound: CC1=CN2[C@@H](C1)C=NC3=CC(=C(C=C3C2=O)OC)OCCCCCOC4=C(C=C5C(=C4)N=C[C@@H]6CC(=CN6C5=O)C)OC [SG3199]; settings: max 0.001 µM
In short: as §1

AZD2811 = compound: CCN(CCO)CCCOc1ccc2c(Nc3cc(CC(=O)Nc4cccc(F)c4)[nH]n3)ncnc2c1 [AZD2811]; settings: max 1 µM
In short: as §1

SN-38 = compound: CCc1c2c(nc3ccc(O)cc13)-c1cc3c(c(=O)n1C2)COC(=O)[C@]3(O)CC [SN-38]; settings: max 0.3 µM
In short: as §1

AZD0156 = compound: CN(C)CCCOc1ccc(-c2ccc3ncc4c(c3c2)n(C2CCOCC2)c(=O)n4C)cn1 [AZD0156]; settings: max 3 µM
In short: as §1

AZD4320 = compound: CN(CC[C@H](CSC1=CC=CC=C1)NC2=C(C=C(C=C2)S(=O)(=O)NC(=O)C3=CC=C(C=C3)N4CCC(CC4)[C@H](C5=CC=CC=C5C6=CC=C(C=C6)Cl)O)S(=O)(=O)C(F)(F)F)CCO [AZD4320]; settings: max 1 µM
In short: as §1

Alisertib = compound: COc1cc(Nc2ncc3c(n2)-c2ccc(Cl)cc2C(c2c(F)cccc2OC)=NC3)ccc1C(=O)O [Alisertib]; settings: max 10 µM
In short: as §1

Etoposide = compound: COc1cc([C@@H]2c3cc4c(cc3[C@@H](O[C@@H]3O[C@@H]5CO[C@@H](C)O[C@H]5[C@H](O)[C@H]3O)[C@H]3COC(=O)[C@H]23)OCO4)cc(OC)c1O [Etoposide]; settings: max 10 µM
In short: as §1

Gefitinib = compound: COc1cc2ncnc(Nc3ccc(F)c(Cl)c3)c2cc1OCCCN1CCOCC1 [Gefitinib]; settings: max 10 µM
In short: as §1

Prexasertib = compound: COc1cccc(OCCCN)c1-c1cc(Nc2cnc(C#N)cn2)n[nH]1 [Prexasertib]; settings: max 1 µM
In short: as §1

Doxorubicin = compound: COc1cccc2c1C(=O)c1c(O)c3c(c(O)c1C2=O)C[C@@](O)(C(=O)CO)C[C@@H]3O[C@H]1C[C@H](N)[C@H](O)[C@H](C)O1 [Doxorubicin]; settings: max 1 µM
In short: as §1

AZD5153 = compound: COc1nnc2ccc(N3CCC(c4ccc(OCCN5CCN(C)C(=O)[C@H]5C)cc4)CC3)nn12 [AZD5153]; settings: max 1 µM
In short: as §1

Lapatinib = compound: CS(=O)(=O)CCNCc1ccc(-c2ccc3ncnc(Nc4ccc(OCc5cccc(F)c5)c(Cl)c4)c3c2)o1 [Lapatinib]; settings: max 10 µM
In short: as §1

AZD8186 = compound: C[C@@H](Nc1cc(F)cc(F)c1)c1cc(C(=O)N(C)C)cc2c(=O)cc(N3CCOCC3)oc12 [AZD8186]; settings: max 10 µM
In short: as §1

Crizotinib = compound: C[C@@H](Oc1cc(-c2cnn(C3CCNCC3)c2)cnc1N)c1c(Cl)ccc(F)c1Cl [Crizotinib]; settings: max 10 µM
In short: as §1

Savolitinib = compound: C[C@@H](c1ccc2nccn2c1)n1nnc2ncc(-c3cnn(C)c3)nc21 [Savolitinib]; settings: max 1 µM
In short: as §1

AZD6738 = compound: C[C@@H]1COCCN1C2=NC(=NC(=C2)C3(CC3)[S@](=N)(=O)C)C4=C5C=CNC5=NC=C4 [AZD6738]; settings: max 10 µM
In short: as §1

AZD5991 = compound: Cc1c2c(nn1C)CSCc1cc(n(C)n1)CSc1cc(c3ccccc3c1)OCCCc1c(C(=O)O)n(C)c3c-2c(Cl)ccc13 [AZD5991]; settings: max 1 µM
In short: as §1

AZD7648 = compound: Cc1cc2ncnn2cc1Nc1ncc2c(n1)n(C1CCOCC1)c(=O)n2C [AZD7648]; settings: max 10 µM
In short: as §1

Taselisib = compound: Cc1nc(-c2cn3c(n2)-c2ccc(-c4cnn(C(C)(C)C(N)=O)c4)cc2OCC3)n(C(C)C)n1 [Taselisib]; settings: max 10 µM
In short: as §1

Selumetinib = compound: Cn1cnc2c(F)c(Nc3ccc(Br)cc3Cl)c(C(=O)NOCCO)cc21 [Selumetinib]; settings: max 10 µM
In short: as §1

SRA737 = compound: N#Cc1cnc(Nc2cc(NC[C@H]3CNCCO3)c(C(F)(F)F)cn2)cn1 [SRA737]; settings: max 10 µM
In short: as §1

MK-2206 = compound: NC1(c2ccc(-c3nc4ccn5c(=O)[nH]nc5c4cc3-c3ccccc3)cc2)CCC1 [MK-2206]; settings: max 10 µM
In short: as §1

Gemcitabine = compound: Nc1ccn([C@@H]2O[C@H](CO)[C@@H](O)C2(F)F)c(=O)n1 [Gemcitabine]; settings: max 0.3 µM
In short: as §1

[1] = compound: O=C(Nc1ccc2[nH]nc(-c3ccncc3)c2c1)[C@@H]1CCN(CC(=O)N2CCN(c3ccc(-c4ncccn4)cc3)CC2)C1; settings: max 5 µM
In short: as §1

Olaparib = compound: O=C(c1cc(Cc2n[nH]c(=O)c3ccccc23)ccc1F)N1CCN(C(=O)C2CC2)CC1 [Olaparib]; settings: max 10 µM
In short: as §1

5-Fluorouracil = compound: O=c1[nH]cc(F)c(=O)[nH]1 [5-Fluorouracil]; settings: max 20 µM
In short: as §1

NTERA-2-cl-D1 (Other Solid Carcinomas) was tested, and the “IC50, cell viability 72 h” value (Carboplatin) was > 10 µM, the “IC50, cell viability 72 h” value (AZD5363) was > 10 µM and the “IC50, cell viability 72 h” value (AZD1775) was > 3000 nM. The “IC50, cell viability 72 h” value (Trametinib) was > 1000 nM, the “IC50, cell viability 72 h” value (Paclitaxel) was 415 nM and the “IC50, cell viability 72 h” value (Palbociclib) was > 10 µM. For the same cell line, the “IC50, cell viability 72 h” value (AZD1390) was > 300 nM, the “IC50, cell viability 72 h” value (Venetoclax) was > 1000 nM and the “IC50, cell viability 72 h” value (Dasatinib) was > 2000 nM. The “IC50, cell viability 72 h” value (SG3199) was > 1 nM, the “IC50, cell viability 72 h” value (AZD2811) was > 1000 nM and the “IC50, cell viability 72 h” value (SN-38) was 5.92 nM. For the same cell line, the “IC50, cell viability 72 h” value (AZD0156) was > 3000 nM, the “IC50, cell viability 72 h” value (AZD4320) was > 1000 nM and the “IC50, cell viability 72 h” value (Alisertib) was 453 nM. For the same cell line, the “IC50, cell viability 72 h” value (Etoposide) was > 10 µM, the “IC50, cell viability 72 h” value (Gefitinib) was > 10 µM and the “IC50, cell viability 72 h” value (Prexasertib) was > 1000 nM. For the same cell line, the “IC50, cell viability 72 h” value (Doxorubicin) was 23.6 nM, the “IC50, cell viability 72 h” value (AZD5153) was 532 nM and the “IC50, cell viability 72 h” value (Lapatinib) was > 10 µM. For the same cell line, the “IC50, cell viability 72 h” value (AZD8186) was > 10 µM, the “IC50, cell viability 72 h” value (Crizotinib) was > 10 µM and the “IC50, cell viability 72 h” value (Savolitinib) was > 1000 nM. The “IC50, cell viability 72 h” value (AZD6738) was > 10 µM, the “IC50, cell viability 72 h” value (AZD5991) was > 1000 nM and the “IC50, cell viability 72 h” value (AZD7648) was > 10 µM. The “IC50, cell viability 72 h” value (Taselisib) was > 10 µM, the “IC50, cell viability 72 h” value (Selumetinib) was > 10 µM and the “IC50, cell viability 72 h” value (SRA737) was > 10 µM. The “IC50, cell viability 72 h” value (MK-2206) was > 10 µM, the “IC50, cell viability 72 h” value (Gemcitabine) was > 300 nM and the “IC50, cell viability 72 h” value [1] was > 5 µM. The “IC50, cell viability 72 h” value (Olaparib) was > 10 µM and the “IC50, cell viability 72 h” value (5-Fluorouracil) was > 20 µM.
For OVKATE (Ovarian Carcinoma), the “IC50, cell viability 72 h” value (Carboplatin) was > 10 µM, the “IC50, cell viability 72 h” value (AZD5363) was > 10 µM and the “IC50, cell viability 72 h” value (AZD1775) was > 3000 nM. The “IC50, cell viability 72 h” value (Trametinib) was > 1000 nM, the “IC50, cell viability 72 h” value (Paclitaxel) was > 3000 nM and the “IC50, cell viability 72 h” value (Palbociclib) was > 10 µM. The “IC50, cell viability 72 h” value (AZD1390) was > 300 nM, the “IC50, cell viability 72 h” value (Venetoclax) was > 1000 nM and the “IC50, cell viability 72 h” value (Dasatinib) was > 2000 nM. The “IC50, cell viability 72 h” value (SG3199) was > 1 nM, the “IC50, cell viability 72 h” value (AZD2811) was > 1000 nM and the “IC50, cell viability 72 h” value (SN-38) was > 300 nM. For the same cell line, the “IC50, cell viability 72 h” value (AZD0156) was > 3000 nM, the “IC50, cell viability 72 h” value (AZD4320) was > 1000 nM and the “IC50, cell viability 72 h” value (Alisertib) was > 10000 nM. The “IC50, cell viability 72 h” value (Etoposide) was > 10 µM, the “IC50, cell viability 72 h” value (Gefitinib) was > 10 µM and the “IC50, cell viability 72 h” value (Prexasertib) was > 1000 nM. The “IC50, cell viability 72 h” value (Doxorubicin) was > 1000 nM, the “IC50, cell viability 72 h” value (AZD5153) was > 1000 nM and the “IC50, cell viability 72 h” value (Lapatinib) was > 10 µM. The “IC50, cell viability 72 h” value (AZD8186) was > 10 µM, the “IC50, cell viability 72 h” value (Crizotinib) was > 10 µM and the “IC50, cell viability 72 h” value (Savolitinib) was > 1000 nM. The “IC50, cell viability 72 h” value (AZD6738) was > 10 µM, the “IC50, cell viability 72 h” value (AZD5991) was > 1000 nM and the “IC50, cell viability 72 h” value (AZD7648) was > 10 µM. The “IC50, cell viability 72 h” value (Taselisib) was > 10 µM, the “IC50, cell viability 72 h” value (Selumetinib) was > 10 µM and the “IC50, cell viability 72 h” value (SRA737) was > 10 µM. The “IC50, cell viability 72 h” value (MK-2206) was > 10 µM, the “IC50, cell viability 72 h” value (Gemcitabine) was > 300 nM and the “IC50, cell viability 72 h” value [1] was > 5 µM. For the same cell line, the “IC50, cell viability 72 h” value (Olaparib) was > 10 µM and the “IC50, cell viability 72 h” value (5-Fluorouracil) was > 20 µM.

Reference: the supplement of paper PMC11061612
